Measured values taken from publication PMC8285423, “In vitro efficacy of artemisinin-based treatments against SARS-CoV-2” (Scientific Reports, 2021).
Values after ≈ are worked out from the molar mass of the structure shown.

What was measured:
[1] = test system: SARS-CoV-2/human/Denmark/DK-AHH1/2020; assay: Concentration–response pretreatment antiviral assay in VeroE6 cells (spike immunostaining); format: cell-based; settings: for EC50: Severe acute respiratory syndrome coronavirus 2, Vero C1008, added 1.5 h prior to infection, 2-day incubation
[2] = test system: SARS-CoV-2/human/Denmark/DK-AHH1/2020; assay: Concentration–response treatment antiviral assay in VeroE6 cells (spike immunostaining); format: cell-based; settings: for EC50: Severe acute respiratory syndrome coronavirus 2, Vero C1008; for concentration at which almost / close to complete virus inhibition was achieved: treatment assay
[3] = test system: SARS-CoV-2/human/Denmark/DK-AHH1/2020; assay: microbe, parasite or virus in culture; format: cell-based
[4] = test system: SARS-CoV-2/human/Denmark/DK-AHH1/2020; assay: microbe, parasite or virus in culture; format: cell-based; settings: for EC50: Severe acute respiratory syndrome coronavirus 2, 48 h
[5] = Cell viability assay (CellTiter 96 AQueous One) in A549-hACE2 cells; format: cell-based; settings: human, no infection
SARS-CoV-2 = assay: Treatment assays summarised over different cell types (VeroE6, Huh7.5, A549-hACE2); format: cell-based; settings: Severe acute respiratory syndrome coronavirus 2, VeroE6, Huh7.5, A549-hACE2 cells, read-out: range of 50% effective concentrations (EC50) in different cell types
in vitro = settings: African green monkey
Description: (§1) To evaluate cytotoxic effects of the tested extracts, compounds, and diluents (DMSO), cell viability was monitored using the CellTiter 96 AQueous One Solution Cell Proliferation Assay (Promega, Madison, WI, USA). VeroE6 cells, Huh7.5 cells or A549-hACE2 cells were plated at 10,000, 8000 or 10,000 cells per well of flat bottom 96-well plates, respectively (Thermo Fisher Scientific, Roskilde, Denmark). The next day, medium was exchanged to contain specified concentrations of extracts or compounds or dilutions of DMSO adding 100 µL per well. Each concentration or dilution was tested in 3 replicates; at least 6 nontreated control wells were included in the assay. For VeroE6 cells and A549-hACE2 cells, after 48 ± 2 h, and for Huh7.5 cells, after 72 ± 2 h of incubation at 37 °C and 5% CO2, 20 µL CellTiter 96 AQueous One Solution Reagent was added per well and plates were incubated for 1.5 to 2 h at 37 °C and 5% CO2, prior to recording absorbance at 492 nm using a FLUOstar OPTIMA 96-well plate reader (BMG LABTECH, Offenburg, Germany). Absorbance recorded in each well was related to the average absorbance of nontreated control wells to calculate the percentage of cell viability. Datapoints included in figures are means of triplicates from one independent experiment with SEM. Sigmoidal dose response curves were fitted and median cytotoxic concentration (CC50) values were calculated with GraphPad Prism 8.0.0 using a bottom constraint of 0 and the formula Y = Top/(1 + 10^((LogCC50-X) * HillSlope)) as further specified in Figures S5, S7, and S9.

[6] = Cell viability assay (CellTiter 96 AQueous One) in Huh7.5 cells; settings: human
Description: as §1

[7] = test system: SARS-CoV-2/human/Germany/BavPat 1/2020; assay: Plaque reduction antiviral assay (pretreatment) in VeroE6 cells; format: cell-based; settings: addition prior to virus addition
[8] = Cell viability assay (CellTiter 96 AQueous One) in VeroE6 cells; settings: African green monkey
Description: as §1

[9] = test system: SARS-CoV-2/human/Denmark/DK-AHH1/2020; assay: Time-of-addition experiment with artesunate in A549-hACE2 cells; format: cell-based; settings: for inhibition at 14 µg/mL: read-out: inhibition of viral infection
[10] = test system: SARS-CoV-2 isolate from Wuhan; parameters: method as in earlier work; settings: VeroE6 cells, assay terminated 24 h post infection, ref 22 (Cao et al.); cited from earlier work
[11] = animal studies; single dose; cited from earlier work
[12] = VeroE6 cells, added 1 h post infection, 2-day incubation, read-out: EC50 Treatment assay
[13] = Severe acute respiratory syndrome coronavirus 2, 72 h, Huh7.5 cells, treatment assay, added directly after inoculation, 3-day incubation, read-out: EC50
[14] = A549-hACE2 cells, treatment assay, added directly after inoculation, 2-day incubation, read-out: EC50

| SMILES | EC50 [1] [µg/mL] | EC50 [2, 12] [µg/mL] | concentration at which almost / close to complete virus inhibition was achieved ([2]; VeroE6 cells) [µg/mL] | CC50 at 48 h [5] [µg/mL] | EC50 (SARS-CoV-2) [µg/mL] | CC50 at 72 h [6] [µg/mL] | EC50 [3, 13] [µg/mL] | EC50 [4, 14] [µg/mL] | CC50 at 48 h [8] [µg/mL] | other results |
| --- | --- | --- | --- | --- | --- | --- | --- | --- | --- | --- |
| CO[C@H]1O[C@@H]2O[C@@]3(C)CC[C@H]4[C@H](C)CC[C@@H]([C@H]1C)[C@@]24OO3 [Artemether] | 147 (≈ 493 µM) | 98 | ≥ 153 | 380 (≈ 1270 µM) | 53 to 98 (≈ 178 to 328 µM) | 127 (≈ 426 µM) |  |  |  | inhibition at 153 µg/mL ([1]; Severe acute respiratory syndrome coronavirus 2, Vero C1008, pretreatment assay, 153 µg/mL, read-out: virus inhibition): 52%; EC50 ([3]; Severe acute respiratory syndrome coronavirus 2, Huh7.5, 72 h): 64 µg/mL (≈ 214 µM); inhibition at 65 µg/mL ([3]; Severe acute respiratory syndrome coronavirus 2, Huh7.5, read-out: virus inhibition): 56%; concentration with close to complete virus inhibition ([4]; A549-hACE2 cells, treatment assay): 92 µg/mL; EC50 [4]: 53 µg/mL (≈ 178 µM); CC50 at 48 h (in vitro): 360 µg/mL (≈ 1210 µM) |
| C[C@@H]1CC[C@H]2[C@@H](C)C(=O)O[C@@H]3O[C@@]4(C)CC[C@@H]1[C@]32OO4 [Artemisinin] | 238 (≈ 843 µM) | 151 | 1208 | 1530 (≈ 5410 µM) |  | 5070 (≈ 17900 µM) | > 208 | 168 (≈ 595 µM) | 8220 (≈ 29100 µM) | concentration at which almost / close to complete virus inhibition was achieved ([1]; pretreatment assay): 893 µg/mL; virus inhibition ([3]; Huh7.5 cells, treatment assay, highest evaluated (non-cytotoxic) concentration 208 µg/mL): no significant virus inhibition; inhibition at 208 µg/mL ([3]; Severe acute respiratory syndrome coronavirus 2, Huh7.5 cells, treatment assay, highest evaluated (non-cytotoxic) concentration 208 µg/mL): < 50%; effect on plaque formation (in words) [7]: little antiviral activity |
| C[C@H]1[C@H](OC(=O)CCC(=O)O)O[C@@H]2O[C@@]3(C)CC[C@H]4[C@H](C)CC[C@@H]1[C@@]24OO3 [Artesunate] |  | 7 | 15 | 27 (≈ 70.2 µM) | 7 to 12 (≈ 18.2 to 31.2 µM) | 93 (≈ 242 µM) | 11 (≈ 28.6 µM) | 12 (≈ 31.2 µM) | 41 (≈ 107 µM) | inhibition at 15 µg/mL ([1]; Severe acute respiratory syndrome coronavirus 2, Vero C1008, pretreatment assay, 15 µg/mL (highest evaluated concentration), read-out: virus inhibition): 69%; EC50 ([2]; VeroE6 treatment assay, read-out: EC50): 18 µM; concentration with close to complete virus inhibition ([3]; Huh7.5 cells, treatment assay): 22 µg/mL; inhibition at 14 µg/mL ([4]; Severe acute respiratory syndrome coronavirus 2, A549-hACE2 cells, treatment assay, highest evaluated concentration 14 µg/mL): 63%; inhibition of viral infection ([9]; 14 µg/mL, added 0 h post inoculation, present during the 2 h viral infection phase): did not result in inhibition; inhibition at 14 µg/mL ([9]; Severe acute respiratory syndrome coronavirus 2, added 2 h post inoculation): ≥ 80%; inhibition at 14 µg/mL ([9]; Severe acute respiratory syndrome coronavirus 2, added 4 h post inoculation): ≥ 80%; inhibition at 14 µg/mL ([9]; Severe acute respiratory syndrome coronavirus 2, added 6 h post inoculation): ≥ 80%; EC50 [10]: 13 µM; tissue concentrations (lung, kidney, intestine, spleen) versus plasma concentrations [11]: several-fold higher |
